Measured values from patent US12157741B2, “Macrocyclic inhibitors of DYRK1A” (DANA-FARBER CANCER INSTITUTE, INC., priority 2018, dated 2024).

Columns and labels:
Assay type in all cases: biochemical
DYRK1A = molecular target: T1, DYRK1A (Homo sapiens, UniProt Q13627); test: DYRK1A enzyme assay (Promega ADP-Glo Kinase assay); conditions: for IC50: ADP-Glo, 3 μM ATP, read-out: Enzyme activity against DYRK1A; for potency against DYRK1A (statement on Table 5): statement in words
T1 construct: purchased Thermo Fisher Scientific PR7189B
Experimental: All DYRK1A kinase inhibition assays were conducted by using Promega™ ADP-Glo™ Kinase assay systems (Cat No. V9102).
For DYRK1A enzyme assay, each inhibitor mixed with 0.2 μg/μL of substrate (MVBP, SignalChem, M42-51N), 3 μM ATP (Promega™, Cat No. V9102), 3 ng of DYRK1A enzyme (Thermo Fisher Scientific, PR7189B) in 384-well plate. All samples were diluted with kinase reaction buffer (40 mM Tris HCl, 10 mM MgCL2, and 0.1 μg/μL BSA (bovine serum albumin), 0.05 mM DTT). After 1 h reaction at 25° C., ADP-Glo™ (Proeg™, V9102) reagent was added and incubated at rt for 40 min. Finally, kinase detection reagent (Promega™, Cat No. V6930) was added and reacted at 25° C. for 10 min. The luminescence signals were detected by using Synergy™ Neo2 microplate reader (BioTek®). Compound inhibition curve was fitted using GraphPad Prism 8.0 software.

CLK1 = molecular target: T2, CLK1 (Homo sapiens, UniProt P49759); test: CLK1 enzyme assay (Promega ADP-Glo Kinase assay); conditions: 10 μM ATP, read-out: Enzyme activity against CLK1
T2 construct: purchased Signalchem C57-11G
Experimental: All CLK1 kinase inhibition assays were conducted by using Promega™ ADP-Glo™ Kinase assay systems (Cat No. V9102).
For DYRKIA enzyme assay, each inhibitor mixed with 0.1 μg/μL of substrate (MBP, SignalChem, M42-51N), 10 μM ATP (Promega™, Cat No. V9102), 1.6 ng of CLK1 enzyme (Signalchem, C57-11G) in 384-well plate. All samples were diluted with kinase reaction buffer (40 mM Tris HCl, 10 mM MgCL2, and 0.1 μg/μL BSA, 0.05 mM DTT). After 1 h reaction at 25° C., ADP-Glo™ (Promega™, Cat No. V9102) reagent was added and incubated at rt for 40 min. Finally, kinase detection reagent (Promega™, Cat No. V6930) was added and reacted at 25° C. for 10 min. The luminescence signals were detected by using Synergy™ Neo2 microplate reader (BioTek®). Compound inhibition curve was fitted using GraphPad Prism 8.0 software.

LRRK2 (G2019S) = molecular target: T3, LRRK2 (G2019S) (Homo sapiens, UniProt Q5S007, G2019S); test: LRRK2(G2019S) enzyme assay (Promega ADP-Glo Kinase assay); conditions: 25 μM ATP, read-out: Enzyme activity against LRRK2 (G2019S)
T3 construct: purchased SignalChem L10-12GG
Experimental: All LRRK2 kinase inhibition assays were conducted by using Promega™ ADP-Glo™ Kinase assay systems (Cat No. V4475).
For LRRK G2019S, each compound mixed with 0.2 μg/μL of substrate, 25 μM ATP, 16 ng of LRRK2 G2019S enzyme (SignalChem, L10-12GG). All samples were diluted with kinase reaction buffer (40 mmol/L TrisHCl, 10 mmol/L MgCl2, and 0.1 μg/μL BSA, 0.05 mM DTT). After a 2 h reaction at 25° C., ADP-Glo™ (Promega™, V9102) reagent was added and incubated at rt for 40 min. Finally, kinase detection reagent (Promega™, Cat No. V6930) was added and reacted at 25° C. for 10 min. The luminescence signals were detected by using Synergy™ Neo2 microplate reader (BioTek®). Compound inhibition curve was fitted using GraphPad Prism 8.0 software.

DYRK1B = molecular target: T4, DYRK1B (Homo sapiens, UniProt Q9Y463); test: Invitrogen Zlyte assay, DYRK1B
T4 construct: purchased Invitrogen (assay run by the vendor)
T4 sequence (Q9Y463 whole entry): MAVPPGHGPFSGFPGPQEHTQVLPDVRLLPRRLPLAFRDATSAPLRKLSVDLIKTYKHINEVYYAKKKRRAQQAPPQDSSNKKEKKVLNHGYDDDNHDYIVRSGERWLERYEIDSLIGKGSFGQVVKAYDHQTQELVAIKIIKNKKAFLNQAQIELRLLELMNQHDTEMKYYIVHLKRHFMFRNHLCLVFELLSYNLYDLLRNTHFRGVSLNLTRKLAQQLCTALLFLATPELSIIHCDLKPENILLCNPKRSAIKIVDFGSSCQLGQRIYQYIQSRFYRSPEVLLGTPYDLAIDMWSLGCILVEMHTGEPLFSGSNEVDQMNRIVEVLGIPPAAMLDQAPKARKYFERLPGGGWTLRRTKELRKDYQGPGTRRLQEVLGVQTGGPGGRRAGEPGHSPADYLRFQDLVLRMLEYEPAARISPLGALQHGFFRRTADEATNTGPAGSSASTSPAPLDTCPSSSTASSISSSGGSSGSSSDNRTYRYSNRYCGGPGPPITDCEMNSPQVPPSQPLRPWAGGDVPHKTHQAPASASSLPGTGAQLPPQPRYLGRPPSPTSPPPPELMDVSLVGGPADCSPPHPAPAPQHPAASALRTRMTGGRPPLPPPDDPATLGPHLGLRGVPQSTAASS

T3 sequence (Q5S007 whole entry G2019S): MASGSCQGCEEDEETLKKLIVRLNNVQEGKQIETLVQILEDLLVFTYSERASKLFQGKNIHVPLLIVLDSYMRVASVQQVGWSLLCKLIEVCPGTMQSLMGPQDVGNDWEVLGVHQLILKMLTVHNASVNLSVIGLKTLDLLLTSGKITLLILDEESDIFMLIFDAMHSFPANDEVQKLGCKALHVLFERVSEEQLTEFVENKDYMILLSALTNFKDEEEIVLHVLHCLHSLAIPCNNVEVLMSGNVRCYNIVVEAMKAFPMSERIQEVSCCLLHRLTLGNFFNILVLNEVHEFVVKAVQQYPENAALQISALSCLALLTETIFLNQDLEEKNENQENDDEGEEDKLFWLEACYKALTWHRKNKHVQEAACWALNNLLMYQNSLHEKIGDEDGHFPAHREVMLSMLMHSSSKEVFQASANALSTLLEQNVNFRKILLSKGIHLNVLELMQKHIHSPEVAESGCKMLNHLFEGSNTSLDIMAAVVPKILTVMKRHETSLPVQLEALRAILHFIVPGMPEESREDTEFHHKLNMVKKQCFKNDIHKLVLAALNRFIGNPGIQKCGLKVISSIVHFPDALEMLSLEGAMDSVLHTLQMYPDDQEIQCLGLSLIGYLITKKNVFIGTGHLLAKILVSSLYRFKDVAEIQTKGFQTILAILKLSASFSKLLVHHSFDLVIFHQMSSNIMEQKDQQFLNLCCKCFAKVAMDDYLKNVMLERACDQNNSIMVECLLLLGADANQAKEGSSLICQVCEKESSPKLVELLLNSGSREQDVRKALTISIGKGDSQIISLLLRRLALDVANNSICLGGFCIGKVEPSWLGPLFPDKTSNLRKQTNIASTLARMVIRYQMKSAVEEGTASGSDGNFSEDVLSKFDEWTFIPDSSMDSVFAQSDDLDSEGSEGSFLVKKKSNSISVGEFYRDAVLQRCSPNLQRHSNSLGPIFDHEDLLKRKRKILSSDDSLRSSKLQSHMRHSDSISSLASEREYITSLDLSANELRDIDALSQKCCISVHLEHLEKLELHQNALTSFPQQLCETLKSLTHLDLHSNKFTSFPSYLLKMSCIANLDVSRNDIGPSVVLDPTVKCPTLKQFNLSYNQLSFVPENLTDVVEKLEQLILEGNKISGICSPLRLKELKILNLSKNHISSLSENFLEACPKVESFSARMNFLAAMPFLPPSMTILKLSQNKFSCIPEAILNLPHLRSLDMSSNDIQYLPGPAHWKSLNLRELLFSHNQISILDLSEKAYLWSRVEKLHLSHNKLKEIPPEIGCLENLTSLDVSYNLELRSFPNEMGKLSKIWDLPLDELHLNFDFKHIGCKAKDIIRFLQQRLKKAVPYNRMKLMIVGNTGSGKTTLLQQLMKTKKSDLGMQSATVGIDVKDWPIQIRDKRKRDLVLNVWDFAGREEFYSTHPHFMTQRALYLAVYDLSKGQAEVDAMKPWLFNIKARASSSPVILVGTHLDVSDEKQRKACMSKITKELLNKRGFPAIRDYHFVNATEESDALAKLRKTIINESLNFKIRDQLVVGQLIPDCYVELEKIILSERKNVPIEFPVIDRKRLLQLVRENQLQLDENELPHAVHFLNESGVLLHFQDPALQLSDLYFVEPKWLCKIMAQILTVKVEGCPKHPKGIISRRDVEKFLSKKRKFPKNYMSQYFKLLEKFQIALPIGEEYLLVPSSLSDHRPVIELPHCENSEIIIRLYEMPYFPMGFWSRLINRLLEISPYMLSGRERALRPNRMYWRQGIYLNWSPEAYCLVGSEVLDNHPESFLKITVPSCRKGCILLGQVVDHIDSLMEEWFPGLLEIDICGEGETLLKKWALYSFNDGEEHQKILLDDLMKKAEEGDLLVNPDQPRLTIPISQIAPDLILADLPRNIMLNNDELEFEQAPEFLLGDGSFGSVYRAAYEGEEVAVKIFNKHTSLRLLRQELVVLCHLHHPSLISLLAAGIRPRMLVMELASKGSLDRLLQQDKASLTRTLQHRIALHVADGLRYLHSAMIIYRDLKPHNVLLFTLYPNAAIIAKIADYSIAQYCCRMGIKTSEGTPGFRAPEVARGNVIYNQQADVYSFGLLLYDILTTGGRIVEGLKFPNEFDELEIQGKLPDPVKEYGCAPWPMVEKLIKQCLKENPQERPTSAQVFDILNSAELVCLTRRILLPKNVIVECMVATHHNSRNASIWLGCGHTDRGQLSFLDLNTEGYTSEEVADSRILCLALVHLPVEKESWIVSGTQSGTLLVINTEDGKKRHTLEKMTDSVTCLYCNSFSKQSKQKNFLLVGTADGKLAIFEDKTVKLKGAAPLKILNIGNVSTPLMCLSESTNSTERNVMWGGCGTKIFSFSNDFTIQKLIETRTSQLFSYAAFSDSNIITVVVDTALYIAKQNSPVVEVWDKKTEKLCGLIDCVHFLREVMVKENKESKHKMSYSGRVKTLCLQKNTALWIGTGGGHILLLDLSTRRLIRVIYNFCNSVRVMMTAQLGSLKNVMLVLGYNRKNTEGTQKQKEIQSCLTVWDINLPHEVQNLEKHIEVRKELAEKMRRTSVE
T2 sequence (P49759 whole entry): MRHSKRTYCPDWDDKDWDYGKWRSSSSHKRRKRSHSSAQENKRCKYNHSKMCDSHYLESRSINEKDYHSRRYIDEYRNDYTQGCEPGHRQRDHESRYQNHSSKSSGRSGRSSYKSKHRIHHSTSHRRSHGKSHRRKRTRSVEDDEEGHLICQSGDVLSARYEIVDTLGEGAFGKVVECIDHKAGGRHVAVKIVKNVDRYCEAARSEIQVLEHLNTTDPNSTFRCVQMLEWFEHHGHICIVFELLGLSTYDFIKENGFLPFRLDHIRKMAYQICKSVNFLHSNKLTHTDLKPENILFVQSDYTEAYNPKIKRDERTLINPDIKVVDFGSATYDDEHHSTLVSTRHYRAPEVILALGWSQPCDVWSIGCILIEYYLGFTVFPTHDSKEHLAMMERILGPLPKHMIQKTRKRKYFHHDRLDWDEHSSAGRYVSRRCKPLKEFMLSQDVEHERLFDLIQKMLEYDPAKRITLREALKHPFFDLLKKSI

With CN1Cc2nn(C)cc2-c2cnc3[nH]cc(c3c2)-c2cn(nc2C(F)(F)F)CCCC1=O [Compound 43, (Z)-31,5-dimethyl-13-(trifluoromethyl)-11H,21H,31H-5-aza-2(3,5)-pyrrolo[2,3-b]pyridina-1(4,1),3(4,3)-dipyrazolacyclononaphan-6-one] the IC50 (DYRK1A) was under 50 nM, the “potency against DYRK1A (statement on Table 5)” value (from here on “potency against DYRK1A”) (DYRK1A) was “most potent” and the IC50 (CLK1) was under 50 nM. For the same compound, the IC50 (LRRK2 (G2019S)) was over 100 nM.
Compound COc1c2c(nn1C)CN(C(C)C)C(=O)CCCn1cc(c(C(F)(F)F)n1)-c1c(C)[nH]c3ncc-2cc13 [Compound 51, (Z)-5-isopropyl-35-methoxy-22,31-dimethyl-13-(trifluoromethyl)-11H,21H,31H-5-aza-2(3,5)-pyrrolo[2,3-b]pyridina-1(4,1),3(4,3)-dipyrazolacyclononaphan-6-one] has an IC50 (DYRK1B) of 533 nM.
For Cc1[nH]c2ncc3cc2c1-c1cn(nc1C(F)(F)F)CCCC(=O)N(C)Cc1nn(C)c(C#N)c1-3 [Compound 52, (Z)-22,31,5-trimethyl-6-oxo-13-(trifluoromethyl)-11H,21H,31H-5-aza-2(3,5)-pyrrolo[2,3-b]pyridina-1(4,1),3(4,3)-dipyrazolacyclononaphane-35-carbonitrile], the IC50 (DYRK1B) was 55 nM.
For COCCn1cc2c(n1)CN(C)C(=O)CCCn1cc(c(C(F)(F)F)n1)-c1c[nH]c3ncc-2cc13 [Compound 59, (Z)-31-(2-methoxyethyl)-5-methyl-13-(trifluoromethyl)-11H,21H,31H-5-aza-2(3,5)-pyrrolo[2,3-b]pyridina-1(4,1),3(4,3)-dipyrazolacyclononaphan-6-one], the IC50 (DYRK1A) was under 50 nM, the “potency against DYRK1A” value (DYRK1A) was “most potent” and the IC50 (CLK1) was under 50 nM. The IC50 (LRRK2 (G2019S)) was over 100 nM.
In the case of CN1Cc2nn(C3CCNCC3)cc2-c2cnc3[nH]cc(c3c2)-c2cn(nc2C(F)(F)F)CCCC1=O [Compound 60, (Z)-5-methyl-31-(piperidin-4-yl)-13-(trifluoromethyl)-11H,21H,31H-5-aza-2(3,5)-pyrrolo[2,3-b]pyridina-1(4,1),3(4,3)-dipyrazolacyclononaphan-6-one], the IC50 (DYRK1A) is reported as under 50 nM, the “potency against DYRK1A” value (DYRK1A) is reported as “most potent” and the IC50 (CLK1) is reported as under 50 nM. The IC50 (LRRK2 (G2019S)) was over 100 nM.
In the case of COCCn1nc2c(c1C#N)-c1cnc3[nH]cc(c3c1)-c1cn(nc1C(F)(F)F)CCCC(=O)N(C)C2 [Compound 61, (Z)-31-(2-methoxyethyl)-5-methyl-6-oxo-13-(trifluoromethyl)-11H,21H,31H-5-aza-2(3,5)-pyrrolo[2,3-b]pyridina-1(4,1),3(4,3)-dipyrazolacyclononaphane-35-carbonitrile], the IC50 (DYRK1A) is reported as under 50 nM, the “potency against DYRK1A” value (DYRK1A) is reported as “most potent” and the IC50 (CLK1) is reported as over 100 nM. The IC50 (LRRK2 (G2019S)) was over 100 nM.
In the case of CN1Cc2nn(C)cc2-c2cnc3[nH]cc(c3c2)-c2cn(nc2C(F)(F)F)CCC1=O [Compound 63, (Z)-31,5-dimethyl-13-(trifluoromethyl)-11H,21H,31H-5-aza-2(3,5)-pyrrolo[2,3-b]pyridina-1(4,1),3(4,3)-dipyrazolacyclooctaphan-6-one], the IC50 (DYRK1A) is reported as 50 to 100 nM, the IC50 (CLK1) is reported as under 50 nM and the IC50 (LRRK2 (G2019S)) is reported as 50 to 100 nM.
In the case of CN1Cc2nn(C3CCNCC3)cc2-c2cnc3[nH]cc(c3c2)-c2cn(nc2C(F)(F)F)CCC1=O [Compound 65, (Z)-5-methyl-31-(piperidin-4-yl)-13-(trifluoromethyl)-11H,21H,31H-5-aza-2(3,5)-pyrrolo[2,3-b]pyridina-1(4,1),3(4,3)-dipyrazolacyclooctaphan-6-one], the IC50 (DYRK1A) is reported as over 100 nM, the IC50 (CLK1) is reported as over 100 nM and the IC50 (LRRK2 (G2019S)) is reported as over 100 nM.
COCCn1nc2c(c1C#N)-c1cnc3[nH]cc(c3c1)-c1cn(nc1C(F)(F)F)CCC(=O)N(C)C2 [Compound 67, (Z)-31-(2-methoxyethyl)-5-methyl-6-oxo-13-(trifluoromethyl)-11H,21H,31H-5-aza-2(3,5)-pyrrolo[2,3-b]pyridina-1(4,1),3(4,3)-dipyrazolacyclooctaphane-35-carbonitrile] was tested, and the IC50 (DYRK1A) was under 50 nM, the “potency against DYRK1A” value (DYRK1A) was “most potent” and the IC50 (CLK1) was over 100 nM. The IC50 (LRRK2 (G2019S)) was over 100 nM.
CN1CCCCn2cc(c(C(F)(F)F)n2)-c2c[nH]c3ncc(cc23)-c2cn(C)nc2C1=O [Compound 75, (Z)-31,5-dimethyl-13-(trifluoromethyl)-11H,21H,31H-5-aza-2(3,5)-pyrrolo[2,3-b]pyridina-1(4,1),3(4,3)-dipyrazolacyclononaphan-4-one] showed an IC50 (DYRK1A) of over 100 nM, an IC50 (CLK1) of over 100 nM and an IC50 (LRRK2 (G2019S)) of over 100 nM.
Compound CN1CCCCn2cc(c(C(F)(F)F)n2)-c2c[nH]c3ncc(cc23)-c2c(nn(C)c2C#N)C1=O [Compound 78, (Z)-31,5-dimethyl-4-oxo-13-(trifluoromethyl)-11H,21H,31H-5-aza-2(3,5)-pyrrolo[2,3-b]pyridina-1(4,1),3(4,3)-dipyrazolacyclononaphane-35-carbonitrile] has an IC50 (DYRK1A) of over 100 nM, an IC50 (CLK1) of over 100 nM and an IC50 (LRRK2 (G2019S)) of over 100 nM.
